Positions of bridges follow the written chain, without caps; N, C: chain ends. Non-standard residues stand in square brackets, D forms with d. Residues, ends and D or L forms follow the SMILES beside them. Bip(4'-NHAc) = CC(=O)Nc1ccc(-c2ccc(C[C@H](N)C(=O)O)cc2)cc1; Ala(morpholin-4-yl) = N[C@@H](CN1CCOCC1)C(=O)O; Phe(3-CONH2) = NC(=O)c1cccc(C[C@H](N)C(=O)O)c1; Phe(4-CH2NH2) = NCc1ccc(C[C@H](N)C(=O)O)cc1; Bip = N[C@@H](Cc1ccc(-c2ccccc2)cc1)C(=O)O; Pro(cis-4-F) = O=C(O)[C@@H]1C[C@H](F)CN1; Val(3-OH) = CC(C)(O)[C@H](N)C(=O)O; Hyp = O=C(O)[C@@H]1C[C@@H](O)CN1; 2Pal = N[C@@H](Cc1ccccn1)C(=O)O; Tic = O=C(O)[C@@H]1Cc2ccccc2CN1; Pip = O=C(O)[C@@H]1CCCCN1; Aze = O=C(O)[C@@H]1CCN1; Sar = CNCC(=O)O
Molecular target: TNFα (Homo sapiens, UniProt P01375)
Experiment: TNF-Induced HEK-Blue Assay
Type: cell-based
Details: HEK-Blue-CD40L cells, NF-kB-driven secreted alkaline phosphatase reporter; TNFα 0.5 ng/ml; 18 h; read-out: TNF induced HEK-Blue assay IC50 value

Sequence of TNFα (P01375 77-233 limits assumed): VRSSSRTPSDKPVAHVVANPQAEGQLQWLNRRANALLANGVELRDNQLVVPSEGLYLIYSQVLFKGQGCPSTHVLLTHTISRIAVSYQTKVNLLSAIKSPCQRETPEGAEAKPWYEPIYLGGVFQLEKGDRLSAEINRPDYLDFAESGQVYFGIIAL

Q: How did the IC50 turn out when `CC(C)C[C@@H]1NC(=O)[C@H](Cc2ccccn2)NC(=O)[C@H](C(C)C)NC(=O)[C@@H]2CCCN2C(=O)[C@H](C(C)C)NC(=O)[C@H](CCCNC(=N)N)NC(=O)[C@H](CC(=O)O)NC(=O)[C@@H]2CCCN2C(=O)CN(C)C(=O)[C@H](Cc2ccc(-c3ccccc3)cc2)NC(=O)[C@H](Cc2ccc(-c3ccccc3)cc2)NC(=O)[C@H](Cc2ccccc2)NC(=O)CSC[C@@H](C(=O)NCC(N)=O)NC1=O` [Example 34] ({CH2CO}-F[Bip][Bip][Sar]PDRVPV[2Pal]LCG-NH2; thioether N-13) was run?
A: Its IC50 is 200 to 2000 nM.

Q: How did the IC50 turn out when `CC(C)C[C@@H]1NC(=O)[C@H](CCCNC(=N)N)NC(=O)[C@H](C(C)C)NC(=O)[C@@H]2CCCN2C(=O)[C@H](C(C)C)NC(=O)[C@H](CCCNC(=N)N)NC(=O)[C@H](CC(=O)O)NC(=O)[C@@H]2CCCN2C(=O)CN(C)C(=O)[C@H](Cc2ccc(-c3ccccc3)cc2)NC(=O)[C@H](Cc2ccc(-c3ccccc3)cc2)NC(=O)[C@H](Cc2cccc(C(N)=O)c2)NC(=O)CSC[C@@H](C(=O)NCC(N)=O)NC1=O` [Example 35] ({CH2CO}-[Phe(3-CONH2)][Bip][Bip][Sar]PDRVPVRLCG-NH2; thioether N-13) was run?
A: Its IC50 is 200 to 2000 nM.

Q: For `CC(C)C[C@@H]1NC(=O)[C@H](Cc2ccc(CN)cc2)NC(=O)[C@H](C(C)C)NC(=O)[C@@H]2CCCN2C(=O)[C@H](C(C)C)NC(=O)[C@H](CCCNC(=N)N)NC(=O)[C@H](CC(=O)O)NC(=O)[C@@H]2CCCN2C(=O)CN(C)C(=O)[C@H](Cc2ccc(-c3ccccc3)cc2)NC(=O)[C@H](Cc2ccc(-c3ccccc3)cc2)NC(=O)[C@H](Cc2ccccc2)NC(=O)CSC[C@@H](C(=O)NCC(N)=O)NC1=O` [Example 36] ({CH2CO}-F[Bip][Bip][Sar]PDRVPV[Phe(4-CH2NH2)]LCG-NH2; thioether N-13), which IC50 is on record?
A: Its IC50 is 200 to 2000 nM.

Q: Which IC50 does the source give for `CC(=O)Nc1ccc(-c2ccc(C[C@@H]3NC(=O)[C@H](Cc4ccc(-c5ccccc5)cc4)NC(=O)[C@H](Cc4ccccc4)NC(=O)CSC[C@@H](C(=O)NCC(N)=O)NC(=O)[C@H](CC(C)C)NC(=O)[C@H](CCCNC(=N)N)NC(=O)[C@H](C(C)C)NC(=O)[C@@H]4CCCN4C(=O)[C@H](C(C)C)NC(=O)[C@H](CCCNC(=N)N)NC(=O)[C@H](CC(=O)O)NC(=O)[C@@H]4CCCN4C(=O)CN(C)C3=O)cc2)cc1` [Example 37] ({CH2CO}-F[Bip][Bip(4'-NHAc)][Sar]PDRVPVRLCG-NH2; thioether N-13) here?
A: Its IC50 is 200 to 2000 nM.

Q: For `CC(=O)Nc1ccc(-c2ccc(C[C@@H]3NC(=O)[C@H](Cc4ccccc4)NC(=O)CSC[C@@H](C(=O)NCC(N)=O)NC(=O)[C@H](CC(C)C)NC(=O)[C@H](CCCNC(=N)N)NC(=O)[C@H](C(C)C)NC(=O)[C@@H]4CCCN4C(=O)[C@H](C(C)C)NC(=O)[C@H](CCCNC(=N)N)NC(=O)[C@H](CC(=O)O)NC(=O)[C@@H]4CCCN4C(=O)CN(C)C(=O)[C@H](Cc4ccc(-c5ccccc5)cc4)NC3=O)cc2)cc1` [Example 38] ({CH2CO}-F[Bip(4'-NHAc)][Bip][Sar]PDRVPVRLCG-NH2; thioether N-13), which IC50 is on record?
A: The IC50 was 200 to 2000 nM.

Q: For `CC(C)C[C@@H]1NC(=O)[C@H](CCCNC(=N)N)NC(=O)[C@H](C(C)C)NC(=O)[C@@H]2C[C@@H](O)CN2C(=O)[C@H](C(C)C)NC(=O)[C@H](CCCNC(=N)N)NC(=O)[C@H](CC(=O)O)NC(=O)[C@@H]2CCCN2C(=O)CN(C)C(=O)[C@H](Cc2ccc(-c3ccccc3)cc2)NC(=O)[C@H](Cc2ccc(-c3ccccc3)cc2)NC(=O)[C@H](Cc2ccccc2)NC(=O)CSC[C@@H](C(=O)NCC(N)=O)NC1=O` [Example 39] ({CH2CO}-F[Bip][Bip][Sar]PDRV[Hyp]VRLCG-NH2; thioether N-13), which IC50 is on record?
A: Its IC50 is 200 to 2000 nM.

Q: `CC(C)C[C@@H]1NC(=O)[C@H](CCCNC(=N)N)NC(=O)[C@H](C(C)C)NC(=O)[C@@H]2Cc3ccccc3CN2C(=O)[C@H](C(C)C)NC(=O)[C@H](CCCNC(=N)N)NC(=O)[C@H](CC(=O)O)NC(=O)[C@@H]2CCCN2C(=O)CN(C)C(=O)[C@H](Cc2ccc(-c3ccccc3)cc2)NC(=O)[C@H](Cc2ccc(-c3ccccc3)cc2)NC(=O)[C@H](Cc2ccccc2)NC(=O)CSC[C@@H](C(=O)NCC(N)=O)NC1=O` [Example 40] ({CH2CO}-F[Bip][Bip][Sar]PDRV[Tic]VRLCG-NH2; thioether N-13) was tested. Which IC50 did it give?
A: The IC50 was 50 to 200 nM.

Q: Which IC50 does the source give for `CC(C)C[C@@H]1NC(=O)[C@H](CCCNC(=N)N)NC(=O)[C@H](C(C)C)NC(=O)[C@@H]2CCCCN2C(=O)[C@H](C(C)C)NC(=O)[C@H](CCCNC(=N)N)NC(=O)[C@H](CC(=O)O)NC(=O)[C@@H]2CCCN2C(=O)CN(C)C(=O)[C@H](Cc2ccc(-c3ccccc3)cc2)NC(=O)[C@H](Cc2ccc(-c3ccccc3)cc2)NC(=O)[C@H](Cc2ccccc2)NC(=O)CSC[C@@H](C(=O)NCC(N)=O)NC1=O` [Example 41] ({CH2CO}-F[Bip][Bip][Sar]PDRV[Pip]VRLCG-NH2; thioether N-13) here?
A: The IC50 was 200 to 2000 nM.

Q: `CC(C)C[C@@H]1NC(=O)[C@H](CCCNC(=N)N)NC(=O)[C@H](C(C)C)NC(=O)[C@@H]2CCN2C(=O)[C@H](C(C)C)NC(=O)[C@H](CCCNC(=N)N)NC(=O)[C@H](CC(=O)O)NC(=O)[C@@H]2CCCN2C(=O)CN(C)C(=O)[C@H](Cc2ccc(-c3ccccc3)cc2)NC(=O)[C@H](Cc2ccc(-c3ccccc3)cc2)NC(=O)[C@H](Cc2ccccc2)NC(=O)CSC[C@@H](C(=O)NCC(N)=O)NC1=O` [Example 42] ({CH2CO}-F[Bip][Bip][Sar]PDRV[Aze]VRLCG-NH2; thioether N-13) was tested. Which IC50 did it give?
A: The IC50 was 200 to 2000 nM.

Q: How did the IC50 turn out when `CC(C)C[C@@H]1NC(=O)[C@H](CCCNC(=N)N)NC(=O)[C@H](C(C)C)NC(=O)[C@@H]2C[C@H](F)CN2C(=O)[C@H](C(C)C)NC(=O)[C@H](CCCNC(=N)N)NC(=O)[C@H](CC(=O)O)NC(=O)[C@@H]2CCCN2C(=O)CN(C)C(=O)[C@H](Cc2ccc(-c3ccccc3)cc2)NC(=O)[C@H](Cc2ccc(-c3ccccc3)cc2)NC(=O)[C@H](Cc2ccccc2)NC(=O)CSC[C@@H](C(=O)NCC(N)=O)NC1=O` [Example 43] ({CH2CO}-F[Bip][Bip][Sar]PDRV[Pro(cis-4-F)]VRLCG-NH2; thioether N-13) was run?
A: Its IC50 is 200 to 2000 nM.

Q: With `CC(C)C[C@@H]1NC(=O)[C@H](CCCNC(=N)N)NC(=O)[C@H](C(C)C)NC(=O)[C@@H]2CCCN2C(=O)[C@H](C(C)C)NC(=O)[C@H](CCCNC(=N)N)NC(=O)[C@H](CC(=O)O)NC(=O)[C@@H]2C[C@@H](O)CN2C(=O)CN(C)C(=O)[C@H](Cc2ccc(-c3ccccc3)cc2)NC(=O)[C@H](Cc2ccc(-c3ccccc3)cc2)NC(=O)[C@H](Cc2ccccc2)NC(=O)CSC[C@@H](C(=O)NCC(N)=O)NC1=O` [Example 44] ({CH2CO}-F[Bip][Bip][Sar][Hyp]DRVPVRLCG-NH2; thioether N-13) as the compound, how does the IC50 read?
A: Its IC50 is 200 to 2000 nM.

Q: `CC(C)C[C@@H]1NC(=O)[C@H](CCCNC(=N)N)NC(=O)[C@H](C(C)C)NC(=O)[C@@H]2CCCN2C(=O)[C@H](C(C)C)NC(=O)[C@H](CCCNC(=N)N)NC(=O)[C@H](CC(=O)O)NC(=O)[C@@H]2Cc3ccccc3CN2C(=O)CN(C)C(=O)[C@H](Cc2ccc(-c3ccccc3)cc2)NC(=O)[C@H](Cc2ccc(-c3ccccc3)cc2)NC(=O)[C@H](Cc2ccccc2)NC(=O)CSC[C@@H](C(=O)NCC(N)=O)NC1=O` [Example 45] ({CH2CO}-F[Bip][Bip][Sar][Tic]DRVPVRLCG-NH2; thioether N-13) was tested. Which IC50 did it give?
A: The IC50 was 200 to 2000 nM.

Q: For `CC(C)C[C@@H]1NC(=O)[C@H](CCCNC(=N)N)NC(=O)[C@H](C(C)C)NC(=O)[C@@H]2CCCN2C(=O)[C@H](C(C)C)NC(=O)[C@H](CCCNC(=N)N)NC(=O)[C@H](CC(=O)O)NC(=O)[C@@H]2CCN2C(=O)CN(C)C(=O)[C@H](Cc2ccc(-c3ccccc3)cc2)NC(=O)[C@H](Cc2ccc(-c3ccccc3)cc2)NC(=O)[C@H](Cc2ccccc2)NC(=O)CSC[C@@H](C(=O)NCC(N)=O)NC1=O` [Example 46] ({CH2CO}-F[Bip][Bip][Sar][Aze]DRVPVRLCG-NH2; thioether N-13), which IC50 is on record?
A: The IC50 was 200 to 2000 nM.

Q: How did the IC50 turn out when `CC(C)C[C@@H]1NC(=O)[C@H](CCCNC(=N)N)NC(=O)[C@H](C(C)C)NC(=O)[C@@H]2CCCN2C(=O)[C@H](C(C)C)NC(=O)[C@H](CCCNC(=N)N)NC(=O)[C@H](CC(=O)O)NC(=O)[C@H](Cc2ccc(O)cc2)NC(=O)CN(C)C(=O)[C@H](Cc2ccc(-c3ccccc3)cc2)NC(=O)[C@H](Cc2ccc(-c3ccccc3)cc2)NC(=O)[C@H](CN2CCOCC2)NC(=O)CSC[C@@H](C(=O)NCC(N)=O)NC1=O` [Example 47] ({CH2CO}-[Ala(morpholin-4-yl)][Bip][Bip][Sar]YDRVPVRLCG-NH2; thioether N-13) was run?
A: Its IC50 is 50 to 200 nM.

Q: `CC(C)C[C@@H]1NC(=O)[C@H](Cc2ccc(O)cc2)NC(=O)[C@H](C(C)C)NC(=O)[C@@H]2CCCN2C(=O)[C@H](C(C)C)NC(=O)[C@H](CCCNC(=N)N)NC(=O)[C@H](CC(=O)O)NC(=O)[C@H](Cc2ccc(O)cc2)NC(=O)CN(C)C(=O)[C@H](Cc2ccc(-c3ccccc3)cc2)NC(=O)[C@H](Cc2ccc(-c3ccccc3)cc2)NC(=O)[C@H](CN2CCOCC2)NC(=O)CSC[C@@H](C(=O)NCC(N)=O)NC1=O` [Example 48] ({CH2CO}-[Ala(morpholin-4-yl)][Bip][Bip][Sar]YDRVPVYLCG-NH2; thioether N-13) was tested. Which IC50 did it give?
A: Its IC50 is 200 to 2000 nM.

Q: `CC(C)C[C@@H]1NC(=O)[C@H](Cc2ccc(O)cc2)NC(=O)[C@H](C(C)C)NC(=O)[C@@H]2CCCN2C(=O)[C@H](C(C)C)NC(=O)[C@H](CCCNC(=N)N)NC(=O)[C@H](CC(=O)O)NC(=O)[C@@H]2CCCN2C(=O)CN(C)C(=O)[C@H](Cc2ccc(-c3ccccc3)cc2)NC(=O)[C@H](Cc2ccc(-c3ccccc3)cc2)NC(=O)[C@H](CN2CCOCC2)NC(=O)CSC[C@@H](C(=O)NCC(N)=O)NC1=O` [Example 49] ({CH2CO}-[Ala(morpholin-4-yl)][Bip][Bip][Sar]PDRVPVYLCG-NH2; thioether N-13) was tested. Which IC50 did it give?
A: Its IC50 is 50 to 200 nM.

Q: How did the IC50 turn out when `CC(C)C[C@@H]1NC(=O)[C@H](Cc2ccc(O)cc2)NC(=O)[C@H](C(C)C)NC(=O)[C@@H]2CCCN2C(=O)[C@H](C(C)C)NC(=O)[C@H](CCCNC(=N)N)NC(=O)[C@H](CC(=O)O)NC(=O)[C@H](Cc2ccc(O)cc2)NC(=O)CN(C)C(=O)[C@H](Cc2ccc(-c3ccccc3)cc2)NC(=O)[C@H](Cc2ccc(-c3ccccc3)cc2)NC(=O)[C@H](C(C)(C)O)NC(=O)CSC[C@@H](C(=O)NCC(N)=O)NC1=O` [Example 50] ({CH2CO}-[Val(3-OH)][Bip][Bip][Sar]YDRVPVYLCG-NH2; thioether N-13) was run?
A: Its IC50 is 50 to 200 nM.

From patent US20250145665A1, “MACROCYCLIC PEPTIDES USEFUL AS MODULATORS OF TNF ALPHA” (Bristol-Myers Squibb Company, priority 2023, published 2025)
